This note sets out measurements from a melting point compilation (Tetko et al.; mined from patent text by program, amines drawn as free bases though some values may be those of a salt).

A word on the melting point: it is the temperature, or range, at which the solid turns liquid. Regarding `COC(=O)C12COc3cc(C(F)(F)F)ccc3C1=NN(C(=O)N(C)c1ccc(C(F)(F)F)cc1)C2` (stereo not given), the melting point was in the range of 105 to 111 °C.
To `O=C(O)c1ccccc1Nc1cccc(Br)c1` belongs 169 to 171 °C.
Next, `O=C(O)Cn1c(=O)c(-c2ccccc2Cl)cc2cnc(NC3C4CN(Cc5ccccc5)CC43)nc21` (stereo not given): 159 to 163 °C; `COc1cc2cc3ncc(C#N)c(Nc4ccc(F)c(Cl)c4)c3cc2cc1OCCN1CCOCC1`: 205 to 210 °C.
Next, `Cc1ccc(C(=O)NCc2cc(C(C)C)no2)cc1`: 107 to 116 °C; `CCCCCCC(C)Oc1ccc(C(=O)O)cc1C#N` (stereo not given): 98.1 to 99.9 °C.
Regarding `CCCc1cc(-c2ccc(Cl)cc2)nc2c(C(=O)Nc3cccc(S(N)(=O)=O)c3)cnn12`, the melting point was 252 to 254 °C.
Next, `CCC(=O)OC(c1nc2c(C(F)(F)F)cccc2c(O)c1C(=O)Nc1nccs1)C(C)C` (stereo not given): 222 °C; `C=CCNc1ccc(C(=O)O)cc1[N+](=O)[O-]`: 195 to 200 °C.
To `O=P(O)(O)CC(O)CNO` (stereo not given) belongs 153 to 155 °C.
To `CCCN(CCC)c1c(CC)nn2c(-c3cnc(N(C)C)cc3C)cccc12` belongs 98.5 to 100 °C.
Consider `CN(C)C(=O)c1cc(OCc2ccccc2)c2nc(C(F)(F)F)n(C)c2c1`, for which the melting point lay within 144 to 146 °C.
For `O=C(c1ccccc1)c1c[nH]c2ncnc(Nc3cccc(CO)c3)c12`, the melting point was in the range of 273 to 275 °C.
To `COc1ccc2c(c1)C(=O)CC1C2C(O)CC2(C)C(O)CCC12` (stereo not given) belongs 113 to 114 °C; to `CS(=O)(=O)Nc1ccc(C(=O)NCCN2CCc3ccsc3C2c2ccccc2)cc1` (stereo not given), 185 to 187 °C.
To `NC(=O)c1nc(-c2ccccn2)nc2c1[nH]c(=O)n2-c1ccccc1` belongs 347 to 349 °C; to `COC(=O)C(=O)c1ccc(OCCCCSc2ccc3ccccc3c2)cc1`, 64 to 65 °C.
`CCCCc1nc(C)c(CC(=S)N2CCCC2)c(=O)n1Cc1ccc(-c2ccccc2-c2nnn[nH]2)cc1` gave a melting point of 94.4 to 97.3 °C.
Next, `CCC(=NO)c1ccc(OCCOC)cc1`: 74 to 80 °C; `COc1ccc(C(Cc2ccc(OCCc3nc(-c4ccccc4)oc3C)cc2)C(=O)O)cc1` (stereo not given): 115 to 117 °C; `CNCc1cn(S(=O)(=O)c2cccnc2)c(-c2ccccc2)c1F`: 98 to 99 °C.
To `CCS(=O)(=O)Oc1ccc(C(C)(C)C)cc1C(C)(C)C` belongs 76 °C; to `O=C(O)CC(CC(=O)O)c1cccc2oc3c(c12)CCCC3`, 176 to 181 °C.
Next, `CN1C(=O)OC(C)(C)c2cc(-c3cc(F)cc(Br)c3)ccc21`: 157 to 158 °C; `Cc1ccc(C(=O)OC2CCN(Cc3cccc([N+](=O)[O-])c3)CC2)cc1`: 90 to 93 °C.
On to `O=C(O)CCCCCCCCCNS(=O)(=O)c1ccc(Cl)cc1`, for which the melting point was 192 to 194 °C.
In turn, `CN(C(=O)c1cnn(C)c1C(=O)Nc1ccn2nc(N3CCOCC3)nc2c1)C1CCCC1` gave a melting point of 222 to 224 °C.
To `CC1Cc2cccc(S(=O)(=O)NC(C)(C)C)c2S1` (stereo not given) belongs 97 to 98 °C.
Next, `CC(=O)OCC1Cc2cc(S(=O)(=O)N(C)C)c(Cl)c(Cl)c2O1` (stereo not given): 159 to 160 °C; `OCC1CCc2cc3ccccc3n2CC1` (stereo not given): 90 to 91 °C.
To `Cc1cccc(NC(=O)CN2C(=O)C3(COc4cc5c(cc43)CCO5)c3ccccc32)c1C` (stereo not given) belongs 251 to 253 °C; to `CCOC(=O)C1=C(C)NC(c2csc(NC(C)=O)n2)=NC1c1ccc(F)cc1Cl` (stereo not given), 220 to 223 °C; to `Cn1cc(Br)c(-c2cccc(NC(=O)Cc3ccc(OC(F)(F)F)cc3)c2)n1`, 141 to 142 °C.
`CC(C)(C)[Si](C)(C)Oc1ccc2c(c1)OC(O)c1c-2ccc2cc(O[Si](C)(C)C(C)(C)C)ccc12` (stereo not given) came in with a melting point of 188 to 190 °C.
Next, `Cc1ccc(S(=O)c2cccc(-c3nc(=O)c4ccccc4s3)n2)cc1` (stereo not given): 228 °C; `O=C(O)C1(CCCCCC(O)CCCCCC2(C(=O)O)CC2)CC1`: 87 to 91 °C.
To `CN(C)CCCOc1ccccc1CNc1ccccc1` belongs 67 to 69 °C; to `C=CCN(CC=C)NC(=S)Nc1ccc(F)cc1`, 73 to 74 °C; to `COC(=O)C(=CNC(C)=O)C(C)=O`, 60 to 62 °C.
Turning to `CC(=C(c1ccc(F)cc1)c1ccc(F)cc1)P(c1ccccc1)c1ccccc1`, the melting point fell in the range of 88 to 90 °C.
To `COC(=O)NCC(C)OS(C)(=O)=O` (stereo not given) belongs 37 to 40 °C; to `COc1ccc(C(O)c2cc(O)ccc2OC)cc1` (stereo not given), 62 to 68 °C; to `CCCCCCCCCCC[C@@H]1CC(O)=CC(=O)O1`, 86 to 87 °C.
To `CCOCc1nc2c(N(Cc3ccccc3)Cc3ccccc3)nc(C)cc2n1NC(=O)OC(C)(C)C` belongs 139 to 141 °C.
As to `CC(C)(C)c1cc(C(=O)c2cc3c(cc2O)CCC3)cc(C(C)(C)C)c1O`, the melting point was 155 to 156 °C.
To `CN(C)C(=O)Oc1ccc(C[C@H](NC(=O)Nc2ccccc2S(=O)(=O)c2ccccc2)C(=O)O)cc1` belongs 115 °C; to `Cc1[nH]c(=O)n(C2CCCCC2)c1-c1ccc(Oc2ccccc2)cc1`, 198 °C.
For the compound `O=C(c1cc2c(OC[C@@H](O)CN3CCC(c4ccc5ccccc5c4)CC3)cccc2[nH]1)N1CCCC1`, the melting point lay in the range of 158 to 161 °C.
Next, `CC(=NO)c1ccc2c(c1)N(C(=O)OC(C)(C)C)CCC2`: 134 to 137 °C.
Next, `O=c1[nH]cnc2cc(Cl)c(Oc3ccc(Cl)cc3)cc12`: 250 to 252 °C; `O=S(=O)(Cl)c1ccc(-c2cccs2)s1`: 63 to 64 °C; `OC1(c2ccc(F)cc2)CCC2CN(Cc3ccccc3)CCC2C1` (stereo not given): 120 to 122 °C.
To `CCc1c(-c2ccc(OCc3ccccc3)cc2)c2c(C(=O)N(C)C)c(C(=O)O)c3cccc1n32` belongs 236 to 238 °C.
In turn, `COc1ccc(Cl)cc1C(C)(C)c1cc(Cl)ccc1O` gave a melting point of 137 °C.
Next, `COc1cc(C(C)=O)ccc1OCCCN1CCC(=C(c2ccc(Cl)cc2)c2ccc(Cl)cc2)CC1`: 143 to 144 °C.
Compound `CSc1sc(C(N)=O)c2c1-c1nn(C)cc1CC2` came in with a melting point of 285 to 286 °C.
Next, `O=C(O)CCC1(c2cccs2)SCCS1`: 55 to 64 °C.
Take `O=Cc1cccc2cc3c(cc12)sc1ccccc13`: the melting point lay in the range of 199 to 200 °C.
Next, `CCOC(=O)C1CCN(c2nnc(NCc3ccc4c(c3)OCO4)c3ccncc23)CC1`: 135 to 136 °C; `CC(C)N(CCNc1nc(Nc2cccc(NS(C)(=O)=O)c2)nc2[nH]cnc12)C(C)C`: 226 to 230 °C.
Next, `COc1ccc(CC(=O)NOCc2ccccc2)cc1`: 98 to 99 °C; `O=C(CCc1ccccc1)Nc1cc(-c2nnc(CCc3cccc(F)c3)o2)ccn1`: 171 to 172 °C; `COC(=O)c1nc(Cl)cc(N)c1OC`: 78 to 79 °C.
`CC(C)(C)C1OCCO1`: the melting point worked out at 86 °C.
Next, `CCOC(=NC(=O)Nc1ccc(Cl)cc1)N1Cc2ccccc2-c2ccccc2C1`: 154 to 156 °C.
To `CC(=O)n1c(=O)n(-c2ccc3c(c2)OCO3)c2ncccc21` belongs 211 to 212 °C; to `CC(C)(C)N1CC(=O)Nc2ccc(Cl)cc2C1=O`, 177 to 178 °C.
To `CS(=O)(=O)Nc1ccc(CCN2CCN(C(=O)c3ccc4[nH]ccc4c3)CC2)cc1` belongs 94 to 97 °C; to `Nc1cc(NC(=O)c2cc3cc(C(F)(F)F)ccc3n2Cc2cccc(F)c2)ccn1`, 225 to 226 °C; to `COc1ccc(CC[N+](=O)[O-])cc1OC`, 50 to 52 °C.
`O=C(O)CN1C(=O)C(NC(=O)[C@@H](S)Cc2ccccc2)CCC2CC=CC=C21` (stereo not given in full) registered a melting point of 107 to 111 °C.
To `CCOC(=O)C1=C(COCCO)NC(C)=C(C(=O)OC)C1c1ccccc1Cl` (stereo not given) belongs 125 to 130 °C.
Next, `CCN(CC)CCNC(=O)c1cc(Cl)c(N)cc1OCCOC(C)=O`: 101 to 102 °C.
To `O=c1ccn(CCO)c(C(O)c2ccccc2F)c1OCc1ccccc1` (stereo not given) belongs 164 to 166 °C.
Consider `CCn1c(=O)c2[nH]c(C(C)C)nc2n(Cc2ccc(OC)c(OC3CCCC3)c2)c1=O`, for which the melting point fell in the range of 208 to 209 °C.
To `CC(C)c1cn2cccc(C=O)c2n1` belongs 70 to 72 °C; to `C#CCN(Cc1ccc2nc[nH]c(=O)c2c1)c1ccc(C(C)=O)cc1`, 197 to 199 °C; to `CC(C)(C)OC(=O)NCC(=O)Nc1c(C(=O)CC(=O)Nc2nccs2)cccc1C(F)(F)F`, 166 °C.
To `CCOc1cc(=O)n(-c2ccc([N+](=O)[O-])cc2)[nH]1` belongs 143 °C.
Next, `CCCCNC(=O)ON1C(C)(C)CC(OC(=O)c2ccccc2)CC1(C)C`: 126 to 127 °C; `O=C1OCc2c1cc1ccc3c(c1c2-c1ccc2ccccc2c1)OCO3`: 224 to 226 °C.
Turning to `COC(=O)COc1ccc(OC)cc1C(=O)OC`, the melting point was 66 to 68.5 °C.
In the case of `COC(=O)CCC(=O)c1ccc2c(c1)CC(CCCCNC(C)=O)C2` (stereo not given), the melting point lay within 94 to 95 °C.
To `CCOC(=O)c1c[nH]c2ccc(OC3CCN(C)CC3)nc12` belongs 232 °C; to `CCOC(=O)c1cc(-c2cccc(OC)c2)[nH]c1N`, 96 to 97 °C.
To `CCOC(=O)c1cc(OC)c2c(C)c(CCN(CC)CC)c(=O)oc2c1Cl` belongs 147 to 148 °C; to `OCc1ccc(Oc2cccnc2)c(C(F)(F)F)c1`, 96 °C.
On to `COc1ccc(Cl)cc1NC(=O)NCC(=O)c1ccccc1`, for which the melting point is 171 to 173 °C.
Next, `COC(=O)C1CCC2C3CCC4CC(OC(=O)CCl)CCC4(C)C3C(OC(=O)CCl)CC12C` (stereo not given): 149 to 155 °C.
To `Nc1c(Cl)cc(C(O)CNCCCCCCOCCc2ccccc2)cc1Cl` (stereo not given) belongs 60 to 63 °C.
